We go through eight compounds from PubChem BioAssay (NCI).

Among the test systems are OVCAR-8 ovarian; SK-OV-3 ovarian; KM20L2 colon; SK-MEL-5 melanoma; HCC-2998 colon; A549 NSCLC; HL-60(TB) leukemia; CAKI-1 renal; SF-539 CNS; KM12 colon; EKVX NSCLC; U251 CNS; UACC-62 melanoma; SK-MEL-28 melanoma; NCI-H522 lung; HOP-92 NSCLC; SNB-19 CNS; NCI-H460 lung.
Test in all cases: DTP human tumour cell line panel, 48 h

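Method: 48-hour compound exposure of cells in 96-well plates, five concentrations, linear interpolation of endpoints. At the TGI there is no net growth.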

For orientation: TGI means the concentration at which net growth stops. High values mean lower sensitivity of the cells, low ones greater sensitivity of the cells. On to `COc1ccc(Cc2c3cc(OC)c(OC)cc3cc[n+]2C)cc1`, for which the TGI is greater than 48.6 µM with OVCAR-8 ovarian; greater than 47.3 µM in the test with SK-OV-3 ovarian; 24.3 µM in the test on KM20L2 colon; greater than 62.2 µM with SK-MEL-5 melanoma; greater than 32.8 µM in the test with HCC-2998 colon; greater than 46.5 µM with A549 NSCLC. For the same compound, the TGI was greater than 100 µM in the test with HL-60(TB) leukemia; greater than 61.7 µM in the test with CAKI-1 renal; greater than 53.1 µM with SF-539 CNS; greater than 23 µM in the test on KM12 colon; greater than 59 µM in the test with EKVX NSCLC; greater than 73.1 µM in the test with U251 CNS. Further, the TGI is greater than 50 µM in the test on UACC-62 melanoma; greater than 58.6 µM in the test with SK-MEL-28 melanoma; greater than 85.9 µM in the test on NCI-H522 lung; 58.7 µM with HOP-92 NSCLC; greater than 31.4 µM in the test with SNB-19 CNS.
On to `CC1CC(=O)C(CC(=O)O)[C@H]1C(C(=O)C(=O)Nc1cc(Cl)ccc1Cl)[N+](=O)[O-]` (stereo partly specified), for which the TGI in the test on OVCAR-8 ovarian, in the test on SK-OV-3 ovarian, in the test on KM20L2 colon, in the test on SK-MEL-5 melanoma, in the test with HCC-2998 colon and in the test with A549 NSCLC was greater than 100 µM each time. Moreover, the TGI in the test with HL-60(TB) leukemia, with CAKI-1 renal, in the test on SF-539 CNS, in the test with KM12 colon, in the test on NCI-H460 lung and with EKVX NSCLC was greater than 100 µM each time. Further, the TGI with U251 CNS, with UACC-62 melanoma, in the test with SK-MEL-28 melanoma, in the test with NCI-H522 lung, in the test on HOP-92 NSCLC and in the test with SNB-19 CNS was greater than 100 µM each time.
For the compound `C[C@H](O)CCC(=O)c1ccoc1`, the TGI with OVCAR-8 ovarian, with SK-OV-3 ovarian, with KM20L2 colon, in the test on SK-MEL-5 melanoma, in the test on HCC-2998 colon and in the test with A549 NSCLC was greater than 100 µM in each case. In addition, the TGI in the test with HL-60(TB) leukemia, in the test with CAKI-1 renal, in the test on SF-539 CNS, in the test on KM12 colon, with NCI-H460 lung and in the test with EKVX NSCLC was greater than 100 µM each time. The TGI in the test on U251 CNS, in the test with UACC-62 melanoma, in the test on SK-MEL-28 melanoma, in the test on NCI-H522 lung, with HOP-92 NSCLC and in the test on SNB-19 CNS was greater than 100 µM each time.
For the compound `O=c1ccn([C@@H]2C[C@H](CO)CS(=O)C2)c(=O)[nH]1` (stereo partly specified), the TGI with OVCAR-8 ovarian, with SK-OV-3 ovarian, in the test on KM20L2 colon, with SK-MEL-5 melanoma, in the test on HCC-2998 colon and with A549 NSCLC was greater than 100 µM throughout. Also, the TGI in the test with HL-60(TB) leukemia, with CAKI-1 renal, in the test with SF-539 CNS, with KM12 colon, in the test on NCI-H460 lung and with EKVX NSCLC was greater than 100 µM each time. In addition, the TGI with U251 CNS, with UACC-62 melanoma, in the test on SK-MEL-28 melanoma, with NCI-H522 lung, with HOP-92 NSCLC and with SNB-19 CNS was greater than 100 µM each time.
Regarding `N#CC(NNC(=O)c1ccccc1O)c1ccccc1O` (stereo unspecified), the TGI in the test with OVCAR-8 ovarian is greater than 100 µM; in the test with SK-OV-3 ovarian, greater than 100 µM; with KM20L2 colon, greater than 100 µM; in the test with SK-MEL-5 melanoma it was 42.3 µM; in the test on A549 NSCLC, greater than 100 µM; in the test with HL-60(TB) leukemia it was greater than 100 µM. For the same compound, the TGI in the test with CAKI-1 renal is 28.4 µM; with SF-539 CNS, 40.9 µM; in the test on KM12 colon, greater than 100 µM; in the test with NCI-H460 lung it was greater than 100 µM; in the test with U251 CNS, greater than 100 µM; in the test on UACC-62 melanoma, 16.9 µM. Further, the TGI in the test on SK-MEL-28 melanoma, in the test on NCI-H522 lung and with HOP-92 NSCLC was greater than 100 µM each time.
Turning to `COC(=O)N1C=Cc2c(c(C)c3c([nH]c4ccccc43)c2C)C1C` (stereo unspecified), the TGI was determined as 39.8 µM with OVCAR-8 ovarian; 57.3 µM in the test on SK-OV-3 ovarian; 29.3 µM in the test on KM20L2 colon; 31.1 µM in the test with SK-MEL-5 melanoma; 32.1 µM with HCC-2998 colon; 42.2 µM in the test with A549 NSCLC. Further, the TGI amounted to 52 µM in the test with HL-60(TB) leukemia; 34.5 µM in the test with CAKI-1 renal; 35.3 µM in the test with SF-539 CNS; 70.3 µM in the test on NCI-H460 lung; 32.1 µM with EKVX NSCLC; 30.4 µM with U251 CNS. Moreover, the TGI in the test on UACC-62 melanoma came to 34.9 µM; in the test with SK-MEL-28 melanoma, 31.1 µM; with HOP-92 NSCLC, 36.5 µM; with SNB-19 CNS, 35.6 µM.
Turning to `COc1cc(/C=C(\C#N)C(=O)c2ccccc2)cc(OC)c1OC`, the TGI with OVCAR-8 ovarian, in the test on SK-OV-3 ovarian, in the test on KM20L2 colon, in the test on SK-MEL-5 melanoma, in the test with HCC-2998 colon and in the test with A549 NSCLC was greater than 100 µM throughout. Besides, the concentration for total growth inhibition (TGI) in the test with HL-60(TB) leukemia, in the test on CAKI-1 renal, in the test on SF-539 CNS, in the test on KM12 colon, in the test on NCI-H460 lung and in the test with EKVX NSCLC was greater than 100 µM throughout. Besides, the TGI in the test on U251 CNS, in the test with UACC-62 melanoma, in the test on SK-MEL-28 melanoma, with NCI-H522 lung, with HOP-92 NSCLC and in the test on SNB-19 CNS was greater than 100 µM each time.
Take `CSc1cnc2ccccc2c1Sc1cn(C)c2ccccc2c1=O`: the TGI with OVCAR-8 ovarian is 45 µM; in the test on SK-OV-3 ovarian, 44.5 µM; in the test with KM20L2 colon, greater than 100 µM; in the test on SK-MEL-5 melanoma it was greater than 100 µM; in the test on HCC-2998 colon it was greater than 100 µM; in the test on A549 NSCLC it was greater than 100 µM. Further, the TGI is greater than 100 µM in the test on HL-60(TB) leukemia; greater than 100 µM in the test with SF-539 CNS; greater than 100 µM in the test on KM12 colon; greater than 100 µM with NCI-H460 lung; greater than 100 µM in the test with EKVX NSCLC; 38.6 µM in the test on U251 CNS. The TGI is greater than 100 µM in the test on UACC-62 melanoma, greater than 100 µM in the test on SK-MEL-28 melanoma, 67 µM in the test with HOP-92 NSCLC and 83.3 µM in the test on SNB-19 CNS.
